One data set relates to Aβ42. Description: Demonstration of in vivo efficacy, brain Aβ42 lowering (ELISA). The following applies: mouse brain, 30 mpk. An excerpt:
(§1) To determine whether acute administration of an Aβ42 peptide lowering agent would reduce Aβ peptide levels in vivo, non-transgenic rodents, e.g. mice or rats were used. Animals treated with the Aβ peptide lowering agent were examined and compared to those untreated or treated with vehicle and brain levels of soluble Aβ42 and total Aβ were quantitated by standard techniques, for example, using ELISA.
(§2) A typical protocol for measuring Aβ42 lowering in vivo is shown but it is only one of many variations that could be used to optimize the levels of detectable Aβ. For example, Aβ peptide lowering compounds were formulated in 20% hydroxypropyl 3 cyclodextrin. The Aβ peptide lowering agents were administered as a single oral dose (p.o.) or a single subcutaneous dose (s.c.) to overnight fasted animals. After a certain time, usually 2 or 4 h (as indicated in Table 19), the animals were sacrificed and Aβ42 levels were analysed.
(§3) Blood was collected by decapitation and exsanguinations in EDTA-treated collection tubes. Blood was centrifuged at 1900 g for 10 minutes (min) at 4° C. and the plasma recovered and flash frozen for later analysis. The brain was removed from the cranium and hindbrain. The cerebellum was removed and the left and right hemisphere were separated. The left hemisphere was stored at −18° C. for quantitative analysis of test compound levels. The right hemisphere was rinsed with phosphate-buffered saline (PBS) buffer and immediately frozen on dry ice and stored at −80° C. until homogenization for biochemical assays.
(§4) Mouse brains from non-transgenic animals were resuspended in 8 volumes of 0.4% DEA (diethylamine)/50 mM NaCl containing protease inhibitors (Roche-11873580001 or 04693159001) per gram of tissue, e.g. for 0.158 g brain, add 1.264 ml of 0.4% DEA. All samples were homogenized in the FastPrep-24 system (MP Biomedicals) using lysing matrix D (MPBio #6913-100) at 6 m/s for 20 seconds. Homogenates were centrifuged at 221.300×g for 50 min. The resulting high speed supernatants were then transferred to fresh eppendorf tubes. Nine parts of supernatant were neutralized with 1 part 0.5 M Tris-HCl pH 6.8 and used to quantify Aβtotal and Aβ42.
(§5) To quantify the amount of Aβtotal and Aβ42 in the soluble fraction of the brain homogenates, Enzyme-Linked-Immunosorbent-Assays were used. Briefly, the standards (a dilution of synthetic Aβ1-40 and Aβ1-42, Bachem) were prepared in 1.5 ml Eppendorf tube in Ultraculture, with final concentrations ranging from 10000 to 0.3 pg/ml. The samples and standards were co-incubated with HRPO-labelled N-terminal antibody for Aβ42 detection and with the biotinylated mid-domain antibody 4G8 for Aβtotal detection. […] The plate was allowed to incubate overnight at 4° C. in order to allow formation of the antibody-amyloid complex. Following this incubation and subsequent wash steps the ELISA for Aβ42 quantification was finished by addition of Quanta Blu fluorogenic peroxidase substrate according to the manufacturer's instructions (Pierce Corp., Rockford, Ill.). A reading was performed after 10 to 15 min (excitation 320 nm/emission 420 nm).
A general note: ELISA stands for enzyme-linked immunosorbent assay.

The next data set deals with Aβtotal. Kind of data set: Demonstration of in vivo efficacy, brain Aβtotal lowering (ELISA). The note with it: mouse brain, 30 mpk.
Excerpt: as §1, §2, §3, §4, §5
For Aβtotal detection, a Streptavidine-Peroxidase-Conjugate was added, followed 60 min later by an additional wash step and addition of Quanta Blu fluorogenic peroxidase substrate according to the manufacturer's instructions (Pierce Corp., Rockford, Ill.). A reading was performed after 10 to 15 min (excitation 320 nm/emission 420 nm).

Data set [1] deals with recombinant BACE1 protein (Homo sapiens, UniProt P56817). Description: Biochemical FRET based assay. The note with it: recombinant BACE1 1 μg/ml, 120 minutes at room temperature, pH 5.0; for IC50: read-out: Biochemical FRET based assay pIC50 (converted). An outline of the steps: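 Proteolysis was read as the rise in donor fluorescence (320 nm excitation, 405 nm emission) from T0 to T120, expressed in RFU. The reaction ran 120 minutes at room temperature at pH 5.0 in citrate buffer with 4% DMSO, using […] quenched Swedish APP peptide and 1 μg/ml BACE1.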
Sequence of recombinant BACE1 protein (P56817 46-501): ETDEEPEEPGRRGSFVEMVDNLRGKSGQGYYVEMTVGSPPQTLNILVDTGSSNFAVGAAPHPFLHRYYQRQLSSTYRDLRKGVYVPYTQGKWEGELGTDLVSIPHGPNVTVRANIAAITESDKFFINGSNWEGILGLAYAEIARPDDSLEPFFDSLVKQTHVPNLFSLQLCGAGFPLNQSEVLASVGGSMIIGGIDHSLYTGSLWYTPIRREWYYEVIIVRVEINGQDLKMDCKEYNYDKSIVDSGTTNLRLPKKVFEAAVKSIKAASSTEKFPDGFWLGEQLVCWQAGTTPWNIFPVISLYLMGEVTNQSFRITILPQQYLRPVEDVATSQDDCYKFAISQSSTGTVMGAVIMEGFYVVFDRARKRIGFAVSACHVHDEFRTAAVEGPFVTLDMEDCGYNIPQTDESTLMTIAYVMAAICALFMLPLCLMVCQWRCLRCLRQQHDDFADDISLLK

A further data set deals with Abeta 1-42. Kind of data set: Cellular αLisa assay in SKNBE2 cells, Abeta 1-42. In kind it is cell-based, human. The note with it: incubated for 18 hours; for IC50: Homo sapiens, SKNBE2, 18 h, read-out: Cellular αLisa assay in SKNBE2 cells Abeta 42 pIC50 (converted). An outline of the steps:
(§6)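 Secreted Abeta levels were measured by sandwich αLisa, pairing biotin-AbN/25 donor beads with Ab4G8 acceptor beads for total Abeta or cAb42/26 for Abeta 1-42, read at 615 nm after 650 nm excitation following 1 hour. Cells were SKNBE2 expressing wild-type hAPP695, exposed to compound for 18 hours.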

The next data set relates to Abeta total. Description: Cellular αLisa assay in SKNBE2 cells, Abeta total. In kind it is cell-based, human. The note with it: incubated for 18 hours; for IC50: Homo sapiens, SKNBE2, 18 h, read-out: Cellular αLisa assay in SKNBE2 cells Abetatotal pIC50 (converted). An outline of the steps:
as §6

The record followed here is patent US9828350B2, “5,6-dihydro-2H-[1,4]oxazin-3-yl-amine derivatives useful as inhibitors of beta-secretase (BACE)” (Janssen Pharmaceutica NV, priority 2010, dated 2017).

Counter-ions that a name gives are not always drawn. Some results are limits rather than exact numbers.

As usually defined, the melting point is the temperature of the solid-liquid transition. On to `C[C@]1(c2cc(NC(=O)c3ncc(Cl)cc3Cl)ccc2F)N=C(N)CO[C@H]1C(F)(F)F` [Compound 167], for which the melting point stood at 214.23 °C. Besides, the “Aβ42 (% Ctrl)_Mean” value in the data set on Aβ42 (p.o., 2 h) was 95 % Ctrl. Further, the “Aβtotal (% Ctrl)_Mean” value in the data set with Aβtotal (p.o., 2 h) is recorded as 78 % Ctrl. In data set [1], the IC50 was 34.7 nM. For the same compound, the IC50 in the data set on Abeta 1-42 was 7.59 nM. Moreover, the IC50 with Abeta total is 7.59 nM.
Take `CC1(c2cccc(-c3ccccc3)c2)COCC(N)=N1` (racemic) [Compound 1, rac-5-biphenyl-3-yl-5-methyl-5,6-dihydro-2H-1,4-oxazin-3-amine trifluoroacetate salt]: the “Aβ42 (% Ctrl)_Mean” value in the data set on Aβ42 (s.c., 4 h) was 102 % Ctrl. In addition, the “Aβtotal (% Ctrl)_Mean” value in the data set on Aβtotal (s.c., 4 h) was determined as 97 % Ctrl. The IC50 was 24000 nM in data set [1], 1480 nM with Abeta 1-42 and 1020 nM in the data set with Abeta total.
In the case of `COc1cncc(-c2cccc(C3(C)COCC(N)=N3)c2)c1` (single isomer, unassigned) [Compound 8], the melting point turned out to be 79.5 °C. Besides, the “Aβ42 (% Ctrl)_Mean” value with Aβ42 (s.c., 4 h) was determined as 92 % Ctrl. Besides, in the data set on Aβtotal (s.c., 4 h), the “Aβtotal (% Ctrl)_Mean” value worked out at 98 % Ctrl. For the same compound, the IC50 in data set [1] was 2040 nM. In addition, the IC50 in the data set with Abeta 1-42 was 214 nM. For the same compound, in the data set with Abeta total, the IC50 was 178 nM.
With `N#Cc1ccc(C(=O)Nc2cccc([C@@]3(C4CC4)N=C(N)CO[C@@]3(F)C(F)(F)F)c2)nc1` [Compound 199, (2S,3R)—N-{3-[5-amino-3-cyclopropyl-2-fluoro-2-(trifluoromethyl)-3,6-dihydro-2H-1,4-oxazin-3-yl]phenyl}-5-cyanopyridine-2-carboxamide], the melting point is 196.12 °C. The “Aβ42 (% Ctrl)_Mean” value with Aβ42 (s.c., 2 h) is recorded as 64 % Ctrl. In addition, the “Aβtotal (% Ctrl)_Mean” value with Aβtotal (s.c., 2 h) was 45 % Ctrl. The IC50 in data set [1] is 14.8 nM. In addition, the IC50 with Abeta 1-42 is 16.6 nM. Also, the IC50 with Abeta total was 17 nM.
Take `CC1(c2cccc(NC(=O)c3ccc(C(F)(F)F)cn3)c2)COCC(N)=N1` (racemic) [Compound 14]: the “Aβ42 (% Ctrl)_Mean” value in the data set with Aβ42 (s.c., 4 h) came out at 107 % Ctrl. Also, the “Aβtotal (% Ctrl)_Mean” value in the data set on Aβtotal (s.c., 4 h) worked out at 116 % Ctrl. For the same compound, the “Biochemical FRET based assay pIC50” value in data set [1] was determined as 6.28. Moreover, in the data set with Abeta 1-42, the “Cellular αLisa assay in SKNBE2 cells Abeta 42 pIC50” value came out at 7.49. The “Cellular αLisa assay in SKNBE2 cells Abetatotal pIC50” value in the data set on Abeta total was determined as 7.56.
As for `NC1=N[C@@](c2cc(NC(=O)c3ncc(Cl)cc3F)ccc2F)(C2CC2)[C@@H](F)OC1` [Compound 219], the “Aβ42 (% Ctrl)_Mean” value in the data set with Aβ42 (s.c., 2 h) is on record as 95 % Ctrl. Further, in the data set with Aβtotal (s.c., 2 h), the “Aβtotal (% Ctrl)_Mean” value was determined as 86 % Ctrl. The results for the IC50 (in data set [1]; with Abeta 1-42; with Abeta total) were 93.3 nM, 309 nM and 282 nM, respectively.
In turn, `CC1(c2cccc(NC(=O)c3ccc(Cl)cn3)c2)COC(F)(C(F)(F)F)C(N)=N1` (racemic) [Compound 9, rac-N-{3-[5-amino-6-fluoro-3-methyl-6-(trifluoromethyl)-3,6-dihydro-2H-1,4-oxazin-3-yl]phenyl}-5-chloropyridine-2-carboxamide] gave a melting point of 193.3 °C. Moreover, the “Aβ42 (% Ctrl)_Mean” value in the data set on Aβ42 (s.c., 4 h) is 87 % Ctrl. For the same compound, the “Aβtotal (% Ctrl)_Mean” value in the data set on Aβtotal (s.c., 4 h) stood at 101 % Ctrl. Besides, the IC50 in data set [1] was 3470 nM. The IC50 in the data set on Abeta 1-42 was more than 10000 nM. The IC50 in the data set on Abeta total was 8510 nM.
Turning to `N#Cc1cnc(C(=O)Nc2ccc(F)c([C@@]3(C4CC4)N=C(N)CO[C@@H]3F)c2)c(Cl)c1` [Compound 218], the “Aβ42 (% Ctrl)_Mean” value with Aβ42 (s.c., 2 h) was 99 % Ctrl. The “Aβtotal (% Ctrl)_Mean” value with Aβtotal (s.c., 2 h) is recorded as 90 % Ctrl. Further, the figures for the IC50 (in data set [1]; in the data set on Abeta 1-42; in the data set with Abeta total) were 126 nM, 851 nM and 832 nM, respectively.
In the case of `CC1(c2cccc(-c3cncnc3)c2)N=C(N)COC1F` (single isomer, unassigned) [Compound 96], in the data set on Aβ42 (s.c., 4 h), the “Aβ42 (% Ctrl)_Mean” value worked out at 116 % Ctrl. Further, in the data set on Aβtotal (s.c., 4 h), the “Aβtotal (% Ctrl)_Mean” value turned out to be 104 % Ctrl. Moreover, the IC50 in data set [1] is 11200 nM. In addition, the “Cellular αLisa assay in SKNBE2 cells Abeta 42 pIC50” value in the data set on Abeta 1-42 is on record as 6.46. Besides, in the data set on Abeta total, the “Cellular αLisa assay in SKNBE2 cells Abetatotal pIC50” value was found to be 6.43.
Compound `CC1(c2cc(NC(=O)c3ncc(Cl)cc3Cl)ccc2F)N=C(N)COC1F` (single isomer, unassigned) [Compound 126] gave a melting point of 94.6 °C. The “Aβ42 (% Ctrl)_Mean” value in the data set with Aβ42 (p.o., 4 h) is on record as 26 % Ctrl. Also, in the data set with Aβ42 (s.c., 4 h), the “Aβ42 (% Ctrl)_Mean” value came to 27 % Ctrl. Further, the “Aβtotal (% Ctrl)_Mean” value with Aβtotal (p.o., 4 h) is given as 31 % Ctrl. The “Aβtotal (% Ctrl)_Mean” value in the data set with Aβtotal (s.c., 4 h) stood at 32 % Ctrl. Also, the IC50 in data set [1] was 36.3 nM. In addition, the “Cellular αLisa assay in SKNBE2 cells Abeta 42 pIC50” value in the data set on Abeta 1-42 was 8.06. Moreover, the “Cellular αLisa assay in SKNBE2 cells Abetatotal pIC50” value in the data set on Abeta total amounted to 8.09.
`CC1(c2cccc(-c3cncc(C#N)c3)c2)N=C(N)COC1C(F)(F)F` (single isomer, unassigned) [Compound 204]: the “Aβ42 (% Ctrl)_Mean” value with Aβ42 (s.c., 4 h) is on record as 113 % Ctrl. The “Aβtotal (% Ctrl)_Mean” value in the data set on Aβtotal (s.c., 4 h) was determined as 103 % Ctrl. Besides, the IC50 in data set [1] was 363 nM. Besides, the “Cellular αLisa assay in SKNBE2 cells Abeta 42 pIC50” value in the data set on Abeta 1-42 stood at 7.05. Further, the “Cellular αLisa assay in SKNBE2 cells Abetatotal pIC50” value in the data set with Abeta total came to 7.06.
On to `CC1(c2cccc(-c3cncnc3)c2)N=C(N)COC1(F)C(F)(F)F` (single isomer, unassigned) [Compound 117], for which the “Aβ42 (% Ctrl)_Mean” value with Aβ42 (s.c., 2 h) is recorded as 95 % Ctrl. Besides, in the data set with Aβtotal (s.c., 2 h), the “Aβtotal (% Ctrl)_Mean” value was found to be 86 % Ctrl. Also, the IC50 in data set [1] is 437 nM. The “Cellular αLisa assay in SKNBE2 cells Abeta 42 pIC50” value in the data set on Abeta 1-42 worked out at 6.59. Further, the “Cellular αLisa assay in SKNBE2 cells Abetatotal pIC50” value in the data set with Abeta total was found to be 6.55.
